ChEMBL document CHEMBL1123073, “Conjugates of catecholamines. 6. Synthesis and beta-adrenergic activity of N-(hydroxyalkyl)catecholamine derivatives” (1985)

Test: Relative potency was determined in vitro by measuring the accumulation of cyclic AMP in SV-49 mouse lymphoma cells relative to dl-isoproterenol
Type: functional

Row | Compound | Relative potency
1 | CCCCNC(=O)OCCCC(C)NCC(O)c1ccc(O)c(O)c1.O=P(O)(O)O (centres undefined) | 190
2 | CC(CCCO)NCC(O)c1ccc(O)c(O)c1.O=P(O)(O)O (centres undefined) | 1.3
3 | Cc1ccc(C(=O)NC(=O)OCCCC(C)NCC(O)c2ccc(O)c(O)c2)cc1.Cl (centres undefined) | 73
4 | CC(CCCOC(=O)NC1CCCCC1)NCC(O)c1ccc(O)c(O)c1.Cl (centres undefined) | 29
5 | Cc1ccc(NC(=O)OCCCCC(C)NCC(O)c2ccc(O)c(O)c2)cc1.O=P(O)(O)O (centres undefined) | 1.3
6 | O=P(O)(O)O.OCCCNCC(O)c1ccc(O)c(O)c1 (centres undefined) | 0.0058
7 | Cc1ccc(C(=O)OCCCC(C)NCC(O)c2ccc(O)c(O)c2)cc1.O=P(O)(O)O (centres undefined) | 0.0063
8 | Cc1ccc(NC(=O)OCCCC(C)NCC(O)c2ccc(O)c(O)c2)cc1.O=P(O)(O)O (centres undefined) | 0.092
9 | CC(CCO)NCC(O)c1ccc(O)c(O)c1.O=P(O)(O)O (centres undefined) | 0.012
